2 molecules from patent publication US20250382631A1, “PROTAC-CID SYSTEMS FOR USE IN MULTIPLEX GENE REGULATION” (William Marsh Rice University, priority 2022, published 2025) can be followed below.

In data set [1] the test system is mutated Cre gene with 2-bp micro-deletion / GFP expression in HEK293T cells. Kind of data set: Inducible prime editing repair of micro-deleted Cre, GFP reporter. The class given is cell-based, human. Particulars: 100 nM dTAG-13, FIGS. 3F and 18. On the procedure: Fluorescence assay using flow cytometry analysis. Cells were treated with 0.05% Trpsin EDTA (Thermo Fisher Scientific no. 25300054) or TrypLE (Thermo Fisher Scientific no. 12605028) after transfection and centrifuged at 3000 g for 5 min. Supernatant was removed and the cell pellet was resuspended with 200 μL phosphate buffered saline (PBS) without calcium and magnesium (Thermo Fisher Scientific no. 10010023). Cells were transferred into 12×75 mm flow tubes (Global Scientific no. 110410). Cells were analyzed by MA900 flow cytometry (SONY). 405 nm laser (FL6 filter) was used for testing the BFP channel. 488 nm (FL1 filter) was used for testing the EYFP and GFP channel. Automated alignment using Automatic Setup Beads kit (SONY no. LE-B3001) is performed before running samples. In FIGS. 3A, 3B, and 17, experiments were performed under 2% FSC, 17% BSC, 24% FL1. […] Flow cytometry data was processed and analyzed by FlowJo 10. […] The mean intensity of the reporter fluorescent protein (BFP and EYFP) in viable and single cell populations were calculated by FlowJo 10 as the mean of FL6-A and FL1-A. When calculating the fold change of relative fluorescence units (RFU), the relative fluorescence units of EYFP was calculated by dividing the mean of fluorescence intensity of EYFP with the mean of BFP fluorescence intensity for normalization as the following formula: […]

In data set [2] the test system is three different genomic sites in HEK293T cells. Kind of data set: Inducible C-to-T base editing by A3G5.13 (Sanger sequencing, EditR). In kind it is cell-based, human. Particulars: CBE A3G5.13 with dTAG-13 PROTAC-CID, 100 nM dTAG-13, 3 days, across three genomic sites, FIG. 3C. On the procedure:
Base editing measurement. Before transfection, HEK293T cells were plated into 96 well plates (Corning no. 3598) with 20% confluency. 0.5 μL Lipofectamine 2000 (Life Technology no. 11661089) was mixed with 25 μL DMEM for 5 mins incubation. 80 ng to 210 ng Plasmids (See Table 1 for plasmid dosage used in each condition) were then mixed with 25 μL DMEM and added into the Lipofectamine 2000 and DMEM mixture for 20 min incubation at the room temperature. Mixture was added into cells gently. After 12 h, supernatants were changed with fresh 10% FBS (Thermo Fisher Scientific no. 10437028) DMEM medium (Thermo Fisher Scientific no. 10569044), Puromycin (10 μg/mL Thermo Fisher Scientific no. A1113803) and supplied with 100 nM dTAG-13 (TOCRIS no. 6605/5) or DMSO (Sigma, no. D8418). After 3 days, cell medium was removed and cells were treated with 100 μL lysis buffer (10 mM tris-HCl (pH=7.5), 0.05% SDS, and proteinase K (25 μg/mL, Thermo Fisher Scientific no. 01169965)) followed by 37° C. 1 h, 58° C. 30 min and inactivated at 95° C. for 20 min. The cell lysis was amplified by 2×Phanta Max Master Mix (Vazyme no. p515) following the program: 95° C. 3 min, 95° C. 15s and 58° C. 15s with 72° C. for 35 cycles, and 72° C. 5 min. The editing efficiency was measured by Sanger sequencing and analyzed by EditR (https://moriaritylab.shinyapps.io/editr_v10/) (Kluesner et al., 2018).

The conditions of data set [3]: after MZ1 administration, FIG. 23.

As for `CC[C@H](C(=O)N1CCCC[C@H]1C(=O)O[C@H](CCc1ccc(OC)c(OC)c1)c1ccccc1OCC(=O)NCCCCCCOc1cccc2c1C(=O)N(C1CCC(=O)NC1=O)C2=O)c1cc(OC)c(OC)c(OC)c1` (stereo partly drawn) [dTAG-13], the “increase in GFP expression (prime editing repair of micro-deleted Cre)” value in data set [1] is reported as “more than 25 fold”. Also, the C-to-T editing in data set [2] is reported as 30-50%.

For `Cc1ncsc1-c1ccc(CNC(=O)[C@@H]2C[C@@H](O)CN2C(=O)[C@@H](NC(=O)COCCOCCOCCNC(=O)C[C@@H]2N=C(c3ccc(Cl)cc3)c3c(sc(C)c3C)-n3c(C)nnc32)C(C)(C)C)cc1` [MZ1], the “abnormality or body weight change” value in data set [3] is “no abnormality or body weight change”.
